# Patent publication US11738007B2, “Treatment of glaucoma using endothelin receptor antagonists” (Perfuse Therapeutics, Inc., priority 2019, dated 2023)
# Where “and” joins values, the source holds several entries; their conditions need not be identical. Identical values can stand only once. Like-named read-outs stand apart in the source and are kept apart here.
# Tests used:
# [1] = Solubility; assay type: physicochemical
# From the text: (§1) In the above table, the physicochemical data, e.g., solubility, were obtained following standard protocols known in the field (see, e.g., Reis et al., Mini Rev Med Chem., 2010, 10(11):1071-6; Avdeef et al., Expert Opin Drug Metab Toxicol., 2005, 1(2):325-42; Bharate et al., Comb Chem High Throughput Screen., 2016, 19(6):461-9; and Jain et al., J Pharm Biomed Anal., 2013, 86:11-35); and the biochemical data, i.e., potency for ETA/ETB, were obtained following the protocols known in the field (see, e.g., Kirkby et al., Br J Pharmacol., 2008, 153(6):1105-19; and Maguire et al., Br J Pharmacol., 2014, 171(24):5555-72).
# [2] = test system: elevated intraocular pressure (IOP); assay: Morrison's rat model of glaucoma (elevated IOP); assay type: in vivo, Brown Norway rats; conditions: topical eye drops 100 μg per dose, five days a week, four weeks
# From the text: Adult male and female retired breeder Brown Norway rats (approximate age groups of 8 to 11 months) were obtained from Envigo (Indianapolis, Ind.). Baseline IOP measurements and pattern electroretinogram (PERG) amplitudes were collected prior to the surgery for elevation of IOP (to ensure that the IOP and PERG amplitudes were in the expected range of values). IOP was elevated in one eye (left eye) of the rats, while the corresponding right eyes served as contralateral controls. The Morrison method to elevate IOP in rats was carried out by injection of 50 μL of hypertonic saline through the episcleral veins to sclerose the trabecular meshwork. IOP was measured twice a week throughout the entire duration of the experiment. […] After detecting an elevation of IOP for two consecutive days, topical administration of eye drops (20 μL (100 μg) per dose of the tested compounds in the IOP elevated eye) was commenced and carried out for five days a week for a total of four weeks. In the 4th week of treatment, PERG analysis was carried out and rats were sacrificed by an overdose of pentobarbital (Fatal-Plus). Aqueous humor was collected from the rat eyes, frozen and shipped for analysis. Retinal flat mounts were prepared, immunostained with the RGC marker, Brn3a antibody and surviving RGCs were counted in two eccentricities (central and peripheral). For this study, the Morrison's model was used to induce ocular hypertension in adult male retired breeder Brown Norway rats as previously described by Morrison et al., (Morrison J C, Moore […], Gold […], Johnson E C. A rat model of chronic pressure-induced optic nerve damage. Exp Eye Res. 1997; 64(1):85-96). The immunostained retinal flat mounts were obtained to measure the retinal ganglion cell (RGC) counts. To obtain immunostained retinal flat mounts, the animals were euthanized after the treatments and then their eyes were enucleated. The eye cups were fixed overnight at 4° C. in 4% paraformaldehyde (PFA) and retinal flat mounts were prepared for collecting images. The retinal ganglion cell (RGC) counting was conducted using the images of immunostained retinal flat mounts. The images were uploaded to ImageJ, a photo editor designed for biology research (Rasband, 1997-2018) and the labeled retinal ganglion cells were counted manually in two eccentricities (central and peripheral). […] Pattern ERG (PERG) was used to assess the RGC function. […] Briefly, PERG signals were acquired from a DTL-plus electrode placed on the lower part of the corneal surface and the PERG waves were analyzed using the EMWIN software (LKC). The difference between the amplitude of the major positive (P1) and negative (N2) waves were calculated to […] amplitude.
# [3] = Pharmacokinetics after topical or oral administration in the rat; assay type: in vivo, Brown Norway rats
# Procedure: After the administrations, the animals (N=2) were euthanized at different time points (e.g. 4 and 8 hours) and tissues were collected for analysis. List of tissues collected include plasma, retina/retinal pigment epithelium (RPE)/choroid, vitreous humor and aqueous humor.
# [4] = LogD; assay type: physicochemical; conditions: pH 7.4
# From the text: as §1
# [5] = Permeability (PAMPA); assay type: in vitro ADME; conditions: rating in words
# From the text: as §1
# [6] = test system: ETA/ETB receptor; assay: ETA/ETB selectivity (specificity); assay type: biochemical; conditions: ETA versus ETB, rating in words
# From the text: as §1
# [7] = Stability in solid state; assay type: physicochemical; conditions: 2 h @ l25° C.
# From the text: as §1
# [8] = test system: oxygen-induced ischemic retinopathy; assay: Mouse oxygen-induced ischemic retinopathy (OIR) model; assay type: in vivo, mice; conditions: IVT 1 μL of 2 μg/μL, single dose; 24, 48, 96 hours
# Procedure: A relevant mice model was used to obtain the retinal hypoxia area in mice with oxygen-induced ischemic retinopathy (OIR) at different time points, as shown in FIG. 4. […] Briefly, at P17, mice with OIR (n=60) were given an injection of ET-1 antagonist (1 μL of 2 μg/μL Edonentan formulation, single dose) in one eye and PBS in the fellow eye. At 24, 48, and 96 hours after injection, mice (n=10 for each time point) were euthanized and the retinas were dissected and stained with GSA lectin and hypoxyprobe. The area of NV, area of retinal hypoxia, and the area of retinal nonperfusion were determined for each retina.
# [9] = Pharmacokinetics after topical administration in the rabbit; assay type: in vivo, Dutch-belted rabbits; conditions: single topical eye drop 100 μg; 10 minutes, 2 and 7 hours
# Procedure: To determine the pharmacokinetic properties of Edonentan following topical administration in the rabbit, rabbits (Dutch-belted rabbits) received an eye drop in both eyes (100 μg of Edonentan, 35 μL dose volume/eye). After the administrations, the animals (N=2) were euthanized at different time points (e.g. 10 minutes (immediately after pot-dose), 2 and 7 hours) and tissues were collected for analysis. List of tissues collected include plasma, retina, vitreous humor and bulbar conjunctiva.
smiles,measurement,setting,value
"Cc1onc(NS(=O)(=O)c2ccccc2-c2ccc(-c3ncco3)cc2CN(C)C(=O)CC(C)(C)C)c1C [Edonentan, N-[[2′-[[(4,5-dimethyl-3-isoxazolyl)amino]sulfonyl]-4-(2-oxazolyl)[1,1′-biphenyl]-2-yl]methyl]-N,3,3-trimethylbutanamide]",solubility,"[1]; aqueous buffer, pH 7, amorphous form, read-out: Solubility at pH 7",326 µg/mL and 607 µM
same,solubility,"[1]; ethyl acetate, organic solvent or mixture, read-out: Solubility in Ethyl Acetate",> 8900 µg/mL and > 16800 µM
same,Solubility in Ethyl Acetate (rating),"[1]; ethyl acetate, rating in words",Good
same,solubility,"[1]; pH 2, simulated gastric fluid, read-out: Solubility at pH 2",< 0.54 µg/mL and < 1 µM
same,"RGC function, pattern electroretinogram (PERG) changes",[2],maintained RGC function
same,"Retinal ganglion cell (RGC) counts, peripheral retina",[2],prevented RGC loss
same,Detection in aqueous humor,"[3]; oral, 17 mg/kg",detectable
same,Detection in retina/RPE/choroid and vitreous humor,"[3]; oral, 1.7 and 17 mg/kg",detectable
same,"Detection in retina/RPE/choroid, aqueous humor and vitreous humor","[3]; topical eye drop 100 μg, 4 and 8 hours post-administration",detected
same,logD,[4],1.48
same,Permeability (rating),[5],Mid-High
same,Specificity (rating),[6],High specificity
same,Stability in Solid State (rating),[7],Stable
same,Retinal hypoxia area,[8],improvement
same,"Detection in plasma, retina, vitreous humor and bulbar conjunctiva",[9],detected in all tissues examined at all timepoints
